Measured values reported in patent US20100267561A1, “HERBICIDAL PYRIDAZINONE DERIVATIVES” (priority 2007, published 2010).

How the values were obtained:
Test in all cases: Test E pre-/postemergence plant response
Format in all cases: in vivo
[1] = test system: Italian ryegrass (Lolium multiflorum); conditions: scale 0 to 100
How it was run: (§1)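 Seeds were planted and treated preemergence with compound formulated in a non-phytotoxic solvent mixture containing surfactant; postemergence sprays in the same formulation went onto plants 2 to 18 cm tall (1- to 4-leaf stage). After 14 to 21 days in a greenhouse, injury versus untreated controls was rated visually, 0 (no effect) to 100 (complete control).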

[2] = test system: bermudagrass (Cynodon dactylon); conditions: scale 0 to 100
How it was run: as §1

[3] = test system: black mustard (Brassica nigra); conditions: scale 0 to 100
How it was run: as §1

[4] = test system: common chickweed (Stellaria media); conditions: 4 g ai/ha, Postemergence, scale 0 to 100
How it was run: as §1

[5] = test system: common purslane (Portulaca oleracea); conditions: scale 0 to 100
How it was run: as §1

[6] = test system: dallisgrass (Paspalum dilatatum); conditions: scale 0 to 100
How it was run: as §1

[7] = test system: goosegrass (Eleusine indica); conditions: scale 0 to 100
How it was run: as §1

[8] = test system: green foxtail (Setaria viridis); conditions: scale 0 to 100
How it was run: as §1

[9] = test system: johnsongrass (Sorghum halepense); conditions: scale 0 to 100
How it was run: as §1

[10] = test system: large crabgrass (Digitaria sanguinalis); conditions: scale 0 to 100
How it was run: as §1

[11] = test system: purple nutsedge (Cyperus rotundus); conditions: scale 0 to 100
How it was run: as §1

[12] = test system: southern (S.) sandbur (Cenchrus echinatus); conditions: scale 0 to 100
How it was run: as §1

Structure (SMILES): CCc1cc(-c2ccc(C(F)(F)F)cc2)nn1-c1c(OS(C)(=O)=O)cnn(C)c1=O [Compound 19]
- Plant response rating, Ryegrass, Italian ([1]; 4 g ai/ha, Postemergence): 50
- Plant response rating, Ryegrass, Italian ([1]; 16 g ai/ha, Preemergence): 100
- Plant response rating, Ryegrass, Italian ([1]; 31 g ai/ha, Preemergence): 100
- Plant response rating, Ryegrass, Italian ([1]; Postemergence, 8 g ai/ha): 90
- Plant response rating, Ryegrass, Italian ([1]; Postemergence, 16 g ai/ha): 100
- Plant response rating, Ryegrass, Italian ([1]; Postemergence, 31 g ai/ha): 100
- Plant response rating, Ryegrass, Italian ([1]; Preemergence, 4 g ai/ha): 65
- Plant response rating, Bermudagrass ([2]; 4 g ai/ha, Postemergence): 15
- Plant response rating, Bermudagrass ([2]; 8 g ai/ha, Preemergence): 60
- Plant response rating, Bermudagrass ([2]; 16 g ai/ha, Preemergence): 95
- Plant response rating, Bermudagrass ([2]; 31 g ai/ha, Preemergence): 100
- Plant response rating, Bermudagrass ([2]; Postemergence, 8 g ai/ha): 35
- Plant response rating, Bermudagrass ([2]; Postemergence, 16 g ai/ha): 35
- Plant response rating, Bermudagrass ([2]; Postemergence, 31 g ai/ha): 80
- Plant response rating, Bermudagrass ([2]; Preemergence, 4 g ai/ha): 25
- Plant response rating, Mustard, Black ([3]; 4 g ai/ha, Postemergence): 0
- Plant response rating, Mustard, Black ([3]; 8 g ai/ha, Preemergence): 0
- Plant response rating, Mustard, Black ([3]; 16 g ai/ha, Preemergence): 0
- Plant response rating, Mustard, Black ([3]; 31 g ai/ha, Preemergence): 0
- Plant response rating, Mustard, Black ([3]; Postemergence, 8 g ai/ha): 0
- Plant response rating, Mustard, Black ([3]; Postemergence, 16 g ai/ha): 0
- Plant response rating, Mustard, Black ([3]; Postemergence, 31 g ai/ha): 0
- Plant response rating, Mustard, Black ([3]; Preemergence, 4 g ai/ha): 0
- Plant response rating, Chickweed [4]: 0
- Plant response rating, Purslane ([5]; 4 g ai/ha, Postemergence): 0
- Plant response rating, Purslane ([5]; 16 g ai/ha, Preemergence): 0
- Plant response rating, Purslane ([5]; 31 g ai/ha, Preemergence): 0
- Plant response rating, Purslane ([5]; Postemergence, 8 g ai/ha): 0
- Plant response rating, Purslane ([5]; Postemergence, 16 g ai/ha): 0
- Plant response rating, Purslane ([5]; Postemergence, 31 g ai/ha): 0
- Plant response rating, Purslane ([5]; Preemergence, 4 g ai/ha): 0
- Plant response rating, Dallisgrass ([6]; 4 g ai/ha, Postemergence): 0
- Plant response rating, Dallisgrass ([6]; 8 g ai/ha, Preemergence): 40
- Plant response rating, Dallisgrass ([6]; 16 g ai/ha, Preemergence): 90
- Plant response rating, Dallisgrass ([6]; 31 g ai/ha, Preemergence): 95
- Plant response rating, Dallisgrass ([6]; Postemergence, 8 g ai/ha): 30
- Plant response rating, Dallisgrass ([6]; Postemergence, 16 g ai/ha): 60
- Plant response rating, Dallisgrass ([6]; Postemergence, 31 g ai/ha): 75
- Plant response rating, Dallisgrass ([6]; Preemergence, 4 g ai/ha): 20
- Plant response rating, Goosegrass ([7]; 4 g ai/ha, Postemergence): 0
- Plant response rating, Goosegrass ([7]; 8 g ai/ha, Preemergence): 40
- Plant response rating, Goosegrass ([7]; 16 g ai/ha, Preemergence): 70
- Plant response rating, Goosegrass ([7]; 31 g ai/ha, Preemergence): 90
- Plant response rating, Goosegrass ([7]; Postemergence, 8 g ai/ha): 25
- Plant response rating, Goosegrass ([7]; Postemergence, 16 g ai/ha): 60
- Plant response rating, Goosegrass ([7]; Postemergence, 31 g ai/ha): 75
- Plant response rating, Goosegrass ([7]; Preemergence, 4 g ai/ha): 15
- Plant response rating, Foxtail, Green ([8]; 4 g ai/ha, Postemergence): 20
- Plant response rating, Foxtail, Green ([8]; 8 g ai/ha, Preemergence): 40
- Plant response rating, Foxtail, Green ([8]; 16 g ai/ha, Preemergence): 65
- Plant response rating, Foxtail, Green ([8]; 31 g ai/ha, Preemergence): 100
- Plant response rating, Foxtail, Green ([8]; Postemergence, 8 g ai/ha): 90
- Plant response rating, Foxtail, Green ([8]; Postemergence, 16 g ai/ha): 95
- Plant response rating, Foxtail, Green ([8]; Postemergence, 31 g ai/ha): 100
- Plant response rating, Foxtail, Green ([8]; Preemergence, 4 g ai/ha): 0
- Plant response rating, Johnsongrass ([9]; 4 g ai/ha, Postemergence): 90
- Plant response rating, Johnsongrass ([9]; 16 g ai/ha, Preemergence): 95
- Plant response rating, Johnsongrass ([9]; 31 g ai/ha, Preemergence): 98
- Plant response rating, Johnsongrass ([9]; Postemergence, 8 g ai/ha): 90
- Plant response rating, Johnsongrass ([9]; Postemergence, 16 g ai/ha): 100
- Plant response rating, Johnsongrass ([9]; Postemergence, 31 g ai/ha): 100
- Plant response rating, Johnsongrass ([9]; Preemergence, 4 g ai/ha): 75
- Plant response rating, Crabgrass, Large ([10]; 4 g ai/ha, Postemergence): 30
- Plant response rating, Crabgrass, Large ([10]; 8 g ai/ha, Preemergence): 15
- Plant response rating, Crabgrass, Large ([10]; 16 g ai/ha, Preemergence): 95
- Plant response rating, Crabgrass, Large ([10]; 31 g ai/ha, Preemergence): 100
- Plant response rating, Crabgrass, Large ([10]; Postemergence, 8 g ai/ha): 40
- Plant response rating, Crabgrass, Large ([10]; Postemergence, 16 g ai/ha): 60
- Plant response rating, Crabgrass, Large ([10]; Postemergence, 31 g ai/ha): 80
- Plant response rating, Crabgrass, Large ([10]; Preemergence, 4 g ai/ha): 0
- Plant response rating, Nutsedge, Purple ([11]; 4 g ai/ha, Postemergence): 0
- Plant response rating, Nutsedge, Purple ([11]; Postemergence, 16 g ai/ha): 0
- Plant response rating, Nutsedge, Purple ([11]; Preemergence, 4 g ai/ha): 0
- Plant response rating, Sandbur, S. ([12]; 4 g ai/ha, Postemergence): 90
- Plant response rating, Sandbur, S. ([12]; 16 g ai/ha, Preemergence): 80
- Plant response rating, Sandbur, S. ([12]; 31 g ai/ha, Preemergence): 95
- Plant response rating, Sandbur, S. ([12]; Postemergence, 8 g ai/ha): 98
- Plant response rating, Sandbur, S. ([12]; Postemergence, 16 g ai/ha): 98
- Plant response rating, Sandbur, S. ([12]; Postemergence, 31 g ai/ha): 100
- Plant response rating, Sandbur, S. ([12]; Preemergence, 4 g ai/ha): 0
